In ChEMBL document CHEMBL3792348, “Design, synthesis and structure activity relationship of potent pan-PIM kinase inhibitors derived from the pyridyl carboxamide scaffold” (Bioorg Med Chem Lett, 2016):

What was measured:
[1] = biological target: Serine/threonine-protein kinase pim-2 (Homo sapiens, UniProt Q9P1W9)
Description: Inhibition of Pim2 (unknown origin) using BAD peptide preincubated for 15 mins followed by ATP addition measured after 60 to 100 mins by Kinase-Glo reagent based luminescence assay

[2] = biological target: Serine/threonine-protein kinase pim-1 (Homo sapiens, UniProt P11309); test: Inhibition of Pim1 (unknown origin) using BAD peptide preincubated for 15 mins followed by ATP addition measured after 60 to 100 mins by Kinase-Glo reagent based luminescence assay
Serine/threonine-protein kinase pim-1, sequence (P11309 whole entry): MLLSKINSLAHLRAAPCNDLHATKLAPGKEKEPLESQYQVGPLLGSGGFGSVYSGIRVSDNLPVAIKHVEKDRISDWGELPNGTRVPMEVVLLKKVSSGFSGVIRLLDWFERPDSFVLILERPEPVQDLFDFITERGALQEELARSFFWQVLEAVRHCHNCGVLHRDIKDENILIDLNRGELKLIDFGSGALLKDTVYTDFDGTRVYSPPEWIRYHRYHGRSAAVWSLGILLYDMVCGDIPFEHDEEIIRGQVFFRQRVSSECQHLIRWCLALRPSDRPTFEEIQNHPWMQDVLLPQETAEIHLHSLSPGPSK

[3] = Hepatic extraction ratio in rat liver microsomes at 1 uM incubated for 30 mins by semi-quantitative LC-MS/MS analysis; assay type: ADME; settings: read-out: ERH
[4] = Lipophilicity, logD of the compound; assay type: physicochemical; settings: octanol/water
[5] = Hepatic extraction ratio in human liver microsomes at 1 uM incubated for 30 mins by semi-quantitative LC-MS/MS analysis; assay type: ADME; settings: read-out: ERH
[6] = biological target: Serine/threonine-protein kinase pim-3 (Homo sapiens, UniProt Q86V86); test: Inhibition of Pim3 (unknown origin) using BAD peptide preincubated for 15 mins followed by ATP addition measured after 60 to 100 mins by Kinase-Glo reagent based luminescence assay

Serine/threonine-protein kinase pim-2, sequence (Q9P1W9 whole entry): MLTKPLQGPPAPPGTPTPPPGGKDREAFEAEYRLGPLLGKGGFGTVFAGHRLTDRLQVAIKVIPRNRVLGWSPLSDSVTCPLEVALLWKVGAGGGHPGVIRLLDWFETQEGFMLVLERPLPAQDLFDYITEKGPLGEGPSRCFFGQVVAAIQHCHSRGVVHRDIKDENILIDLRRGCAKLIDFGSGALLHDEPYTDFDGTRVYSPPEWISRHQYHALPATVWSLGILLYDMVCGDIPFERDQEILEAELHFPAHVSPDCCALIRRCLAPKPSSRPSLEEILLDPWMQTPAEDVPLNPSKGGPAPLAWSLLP

| SMILES | Ki [1] | Ki [2] | hepatic extraction ratio at 0.5 h, 1 µM [3] | logD [4] | hepatic extraction ratio at 0.5 h, 1 µM [5] | Ki [6] |
| --- | --- | --- | --- | --- | --- | --- |
| CC(=O)Nc1nc(C(=O)Nc2ccccc2N2CCCCC2)cs1 | > 12500 nM | 90 nM |  |  |  |  |
| Nc1cc(-c2ccncc2NC(=O)c2nc(-c3c(F)cccc3F)ccc2N)nc(C(F)(F)F)n1 | < 3 nM | < 1 nM | 0.91 | 4.3 | 0.77 | < 3 nM |
| Nc1cc(-c2ccncc2NC(=O)c2nc(-c3ccccc3F)ccc2N)ccn1 | 35 nM | < 1 nM |  |  |  | 3 nM |
| Nc1cncc(-c2ccncc2NC(=O)c2nc(-c3ccccc3F)ccc2N)n1 | 94 nM | 3 nM |  |  |  | 6 nM |
| Nc1ccc(-c2c(F)cccc2F)nc1C(=O)Nc1cnccc1-c1cccnc1N | 187 nM | 28 nM |  |  |  | 36 nM |
| Cc1cc(-c2ccncc2NC(=O)c2nc(-c3ccccc3F)ccc2N)cc(N)n1 | 4 nM | < 1 nM | 0.95 |  | 0.95 | < 3 nM |
| Cc1cc(-c2ccncc2NC(=O)c2nc(-c3nccs3)ccc2N)nc(N)n1 | 9 nM | < 1 nM | 0.81 |  | 0.64 | < 3 nM |
| Nc1nccc(-c2ccncc2NC(=O)c2nc(-c3c(F)cccc3F)ccc2N)n1 | 50 nM | 6 nM |  |  |  | 5 nM |
| Nc1ccc(-c2ccccc2F)nc1C(=O)Nc1cnccc1-c1ccncc1 | 317 nM | 8 nM |  |  |  | 21 nM |
| Nc1ccc(-c2ccncc2NC(=O)c2nc(-c3ccccc3F)ccc2N)cn1 | 158 nM | 4 nM |  |  |  | 12 nM |

Now from value to molecule:

| Ki [1] | Ki [2] | hepatic extraction ratio at 0.5 h, 1 µM [3] | logD [4] | hepatic extraction ratio at 0.5 h, 1 µM [5] | Ki [6] | SMILES |
| --- | --- | --- | --- | --- | --- | --- |
| < 3 nM | < 1 nM | 0.89 |  | 0.87 | < 3 nM | Nc1cc(-c2ccncc2NC(=O)c2nc(-c3nccs3)ccc2N)nc(C(F)(F)F)n1 |
| 120 nM | 17 nM |  |  |  | 15 nM | Nc1cc(-c2ccncc2NC(=O)c2nc(-c3ccccc3F)ccc2N)nc(N)n1 |
| < 3 nM | < 1 nM | 0.8 |  | 0.58 | < 3 nM | Cc1cc(-c2ccncc2NC(=O)c2nc(-c3ccccc3F)ccc2N)nc(N)n1 |
| < 3 nM | < 1 nM | 0.94 |  | 0.96 | < 3 nM | Cc1cc(-c2ccncc2NC(=O)c2nc(-c3c(F)cccc3F)ccc2N)cc(N)n1 |
| 27 nM | 4 nM |  |  |  | 5 nM | Nc1cc(-c2ccncc2NC(=O)c2nc(-c3c(F)cccc3F)ccc2N)ncn1 |
| 8 nM | 2 nM |  |  |  | < 3 nM | Nc1cc(-c2ccncc2NC(=O)c2nc(-c3c(F)cccc3F)ccc2N)ccn1 |
| < 3 nM | < 1 nM | 0.82 |  | 0.82 | < 3 nM | Cc1nc(N)cc(-c2ccncc2NC(=O)c2nc(-c3c(F)cccc3F)ccc2N)n1 |
| 4 nM | < 1 nM |  |  |  | < 3 nM | COc1cc(-c2ccncc2NC(=O)c2nc(-c3c(F)cccc3F)ccc2N)cc(N)n1 |
